Experiment [1] relates to A-375. Nature of the experiment: Antitumor activity against human A-375 cell xenografted in F344 nude rat model assessed as tumor growth inhibition by measuring T/C ratio at 24.1 mg/kg relative to control. The class given is functional. (In xenograft studies the graft and the host belong to different species.)
The subject of another experiment is HMCB cell line. Nature of the experiment: Antiproliferative activity against human HMCB cells harbouring wild type B-Raf by SRB assay. The class given is functional, cell-based.
Another experiment relates to HMV-2 cell line. Nature of the experiment: Antiproliferative activity against human HMV-2 cells harbouring B-Raf G469V mutant by SRB assay. The class given is functional, cell-based.
Experiment [2] relates to Malme-3M. Nature of the experiment: Antiproliferative activity against human Malme-3M cells harbouring B-Raf V600E mutant by SRB assay. It is filed as functional, cell-based. (In general: In SRB staining, fixed cells bind dye roughly in proportion to their protein.)
The test system of a further experiment is SK-MEL-2. Nature of the experiment: Antiproliferative activity against human SK-MEL-2 cells harbouring wild type B-Raf by SRB assay. It is filed as functional, cell-based.
In the next experiment the test system is CHL-1. The experiment in a line: Antiproliferative activity against human CHL-1 cells harbouring wild type B-Raf by SRB assay. The class given is functional, cell-based.
Experiment [3] deals with A-375. Nature of the experiment: Antiproliferative activity against human A-375 cells harbouring B-Raf V600E mutant by SRB assay. It is filed as functional, cell-based.
The subject of a further experiment is HT-144. The experiment in a line: Antiproliferative activity against human HT-144 cells harbouring B-Raf V600E mutant by SRB assay. It is filed as functional, cell-based.
Experiment [4] relates to A-375. Nature of the experiment: Antitumor activity against human A-375 cell xenografted in F344 nude rat model assessed as tumor growth inhibition by measuring T/C ratio at 9.7 mg/kg relative to control. It is filed as functional.
Experiment [5] has as its system A-375. The experiment in a line: Antiproliferative activity against human A-375 cells by CellTiter-Glo Luminescent Cell Viability Assay. The class given is functional, cell-based.
The subject of another experiment is WM 266-4. The experiment in a line: Antiproliferative activity against human WM266-4 cells by CellTiter-Glo Luminescent Cell Viability Assay. It is filed as functional, cell-based. For orientation: In ATP-based viability assays light output follows the ATP content of the culture.
The test system of the next experiment is COLO-829. Nature of the experiment: Antiproliferative activity against human COLO-829 cells by CellTiter-Glo Luminescent Cell Viability Assay. It is filed as functional, cell-based.
Experiment [6] concerns COLO 205. The experiment in a line: Antiproliferative activity against human COLO 205 cells by CellTiter-Glo Luminescent Cell Viability Assay. It is filed as functional, cell-based.
Experiment [7] concerns COLO 205. The experiment in a line: Antitumor activity against human COLO 205 cells xenografted in mouse model assessed as tumor growth inhibition at 30 mg/kg/day relative to control. It is filed as functional. Further details: scale not given: the % may be the effect or the level left.
A further experiment deals with SK-MEL-5. The experiment in a line: Anticancer activity against human SK-MEL-5 cells assessed as cell growth proliferation. It is filed as functional, cell-based.
In another experiment the test system is UO-31. Nature of the experiment: Anticancer activity against human UO-31 cells assessed as cell growth proliferation. The class given is functional, cell-based.
The next experiment concerns SR. The experiment in a line: Anticancer activity against human SR cells assessed as cell growth proliferation. It is filed as functional, cell-based.
Another experiment concerns SNB-75. Nature of the experiment: Anticancer activity against human SNB-75 cells assessed as cell growth proliferation. It is filed as functional, cell-based.
Experiment [8] has as its system Serine/threonine-protein kinase B-raf (Homo sapiens), P15056 [V600E]. The experiment in a line: Inhibition of B-Raf V600E mutant (unknown origin) at 10 uM relative to control.
The test system of the next experiment is MDA-MB-468. The experiment in a line: Anticancer activity against human MDA-MB-468 cells assessed as cell growth proliferation. The class given is functional, cell-based.
Experiment [9] has as its system HT-29. Nature of the experiment: Anticancer activity against human HT-29 cells assessed as cell growth proliferation. It is filed as functional, cell-based.
Another experiment has as its system PC-3. The experiment in a line: Anticancer activity against human PC-3 cells assessed as cell growth proliferation. The class given is functional, cell-based.
For the next experiment, the system named is NCI-H522. The experiment in a line: Anticancer activity against human NCI-H522 cells assessed as cell growth proliferation. The class given is functional, cell-based.
A further experiment relates to SW-620. The experiment in a line: Anticancer activity against human SW620 cells assessed as cell growth proliferation. The class given is functional, cell-based.
The test system of experiment [10] is A-375. Nature of the experiment: Anticancer activity against human A-375 cells assessed as cell growth proliferation. The class given is functional, cell-based.
The next experiment deals with HOP-92. The experiment in a line: Anticancer activity against human HOP-92 cells assessed as cell growth proliferation. It is filed as functional, cell-based.
The next experiment relates to OVCAR-3. Nature of the experiment: Anticancer activity against human OVCAR-3 cells assessed as cell growth proliferation. It is filed as functional, cell-based.
In another experiment the test system is M14. The experiment in a line: Antiproliferative activity against human M14 cells. It is filed as functional, cell-based.
For another experiment, the system named is Melanoma cell line. The experiment in a line: Antiproliferative activity against human Melanoma cell line. It is filed as functional, cell-based.
Experiment [11] relates to HT-29. Nature of the experiment: Antiproliferative activity against human HT-29 cells assessed as cell growth proliferation. The class given is functional, cell-based.
Experiment [12] deals with T1, Serine/threonine-protein kinase B-raf (Homo sapiens, UniProt P15056). Nature of the experiment: Inhibition of B-Raf (unknown origin).
Experiment [13] deals with A-375. The experiment in a line: Antiproliferative activity against human A-375 cells assessed as inhibition of cell viability. It is filed as functional, cell-based.
Experiment [14] concerns the target Serine/threonine-protein kinase B-raf (Homo sapiens, UniProt P15056, V600E). The experiment in a line: Inhibition of B-Raf V600E mutant (unknown origin).
The test system of experiment [15] is Malme-3M. Nature of the experiment: Antiproliferative activity against human Malme-3M cells assessed as inhibition of cell viability. It is filed as functional, cell-based.
The test system of the next experiment is SK-MEL-28. The experiment in a line: Antiproliferative activity against human SK-MEL-28 cells assessed as inhibition of cell viability. The class given is functional, cell-based.
Experiment [16] has as its system A-375. Nature of the experiment: Antitumor activity against human A-375 cells xenografted in mouse model assessed as tumor growth inhibition at 50 mg/kg, iv relative to control. It is filed as functional. Further details: scale not given: the % may be the effect or the level left.
A short description of experiment [17]: In vivo inhibition of B-Raf in human A-375 cells xenografted in mouse model assessed as tumor growth inhibition. It is filed as functional, cell-based.
Experiment [18] has as its system SK-OV-3. The experiment in a line: Antiproliferative activity against human SK-OV-3 cells. It is filed as functional, cell-based.
Experiment [19] has as its target T1, Serine/threonine-protein kinase B-raf. Nature of the experiment: Inhibition of wild type B-Raf (unknown origin).
Experiment [20] has as its system SK-OV-3. Nature of the experiment: Antitumor activity against human SK-OV-3 cells xenografted in mouse model assessed as reduction in tumor growth measured after 40 days relative to control. It is filed as functional. Further details: scale not given: the % may be the effect or the level left. The note with it: time 40 day.

T1 sequence (P15056 whole entry): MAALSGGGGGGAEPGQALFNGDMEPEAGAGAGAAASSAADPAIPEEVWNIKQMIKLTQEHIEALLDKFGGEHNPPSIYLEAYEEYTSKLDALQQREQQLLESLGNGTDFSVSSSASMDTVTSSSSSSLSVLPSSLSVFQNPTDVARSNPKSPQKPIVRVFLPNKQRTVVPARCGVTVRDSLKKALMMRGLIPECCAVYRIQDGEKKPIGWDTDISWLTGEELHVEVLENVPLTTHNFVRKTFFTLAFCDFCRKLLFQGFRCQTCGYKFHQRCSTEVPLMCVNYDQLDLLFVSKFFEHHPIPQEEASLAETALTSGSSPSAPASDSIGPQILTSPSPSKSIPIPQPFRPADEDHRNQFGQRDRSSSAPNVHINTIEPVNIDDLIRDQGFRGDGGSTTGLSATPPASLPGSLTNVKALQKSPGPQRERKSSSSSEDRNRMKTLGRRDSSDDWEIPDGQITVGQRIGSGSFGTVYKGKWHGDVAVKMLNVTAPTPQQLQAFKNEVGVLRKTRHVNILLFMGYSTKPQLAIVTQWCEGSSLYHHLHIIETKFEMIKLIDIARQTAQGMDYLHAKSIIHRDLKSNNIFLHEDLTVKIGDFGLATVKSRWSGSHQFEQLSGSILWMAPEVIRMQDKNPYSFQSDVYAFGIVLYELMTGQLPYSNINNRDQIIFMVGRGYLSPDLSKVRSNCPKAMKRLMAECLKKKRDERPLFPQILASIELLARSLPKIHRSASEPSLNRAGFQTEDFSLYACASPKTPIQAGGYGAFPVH
Chain of Serine/threonine-protein kinase B-raf (Homo sapiens), P15056 [V600E] (P15056 whole entry V600E): as the sequence (P15056 whole entry) above, with V600E counted along it
Chain of Serine/threonine-protein kinase B-raf (Homo sapiens, UniProt P15056, V600E) (P15056 whole entry V600E): as the sequence (P15056 whole entry) above, with V600E counted along it

A word on the T/C: it is the ratio of treated to control. As usually defined, the IC50 is the midpoint of a concentration-inhibition curve. As to `N#Cc1c(Oc2ccc(F)c(NC(=O)Cc3cccc(C(F)(F)F)c3)c2)ccc2nc(NC(=O)C3CC3)sc12`, the values for the T/C with A-375 [1] and in the experiment on A-375 [4] were 12.1% and 2.1%, respectively. The half-maximal inhibitory concentration (IC50) was 0.35 µM in the experiment with HMCB cell line; 0.2 µM with HMV-2 cell line; 0.05 µM with Malme-3M [2]; 0.06 µM in the experiment with SK-MEL-2; 0.00207 µM in the experiment with CHL-1; 0.16 µM with A-375 [3]. This compound also had a 50% inhibitory concentration (IC50) in the experiment on HT-144 of 0.11 µM.

Consider `CCCS(=O)(=O)Nc1ccc(F)c(C(=O)c2c[nH]c3ncc(Cl)cc23)c1F` [PLX-4720], for which the IC50 with A-375 [5] came out at 0.5 µM; in the experiment with WM 266-4 it was 1.5 µM; with COLO-829 it was 1.7 µM; with COLO 205 [6], 0.31 µM. Besides, the Activity in the experiment with COLO 205 [7] came to 90%.

By inhibition is commonly meant the percentage by which the read-out fell short of the control. Turning to `CCN1CCN(CCC(=O)Nc2cccc(-n3cc(-c4ccncc4)c(-c4ccc(Cl)c(OC)c4)n3)c2)CC1`, the IC50 in the experiment on SK-MEL-5 is 0.51 µM; with UO-31, 0.92 µM; in the experiment with SR it was 0.43 µM; with SNB-75 it was 0.39 µM; with MDA-MB-468 it was 0.27 µM; in the experiment with HT-29 [9], 0.38 µM. The 50% inhibitory concentration (IC50) in the experiment on PC-3 is 0.45 µM; with NCI-H522 it was 0.27 µM; with SW-620, 0.34 µM; in the experiment on A-375 [10], 0.82 µM; in the experiment with HOP-92, 0.78 µM; with OVCAR-3 it was 0.35 µM. Besides, the inhibition in [8] was 100%.

As to `Cc1ccc(NC(=O)c2cccc(C(C)(C)C#N)c2)cc1Nc1ccc2ncn(C)c(=O)c2c1`, the IC50 came out at 0.1 µM in the experiment on M14 and 10 µM in the experiment on Melanoma cell line.

Consider `COc1ccc(-c2n[nH]c(/N=C/c3ccc(O)c(OC)c3)n2)cc1`, for which the half-inhibitory concentration (IC50) in the experiment with HT-29 [11] stood at 1.3 µM; in [12] it was 0.7 µM.

Take `CN(C)CCOc1ccc(-c2n/c(=c3\ccc4c(c3)CCC=4N=O)c(=C3C=CNC=C3)[nH]2)cc1`: the 50% inhibitory concentration (IC50) amounted to 0.37 µM in the experiment with A-375 [13], […] in experiment [14], 0.15 µM in the experiment on Malme-3M [15] and 0.12 µM in the experiment with SK-MEL-28. In addition, the Activity with A-375 [16] is 80%.

For `OCCn1cc(-c2ccc3c(c2)CC/C3=N/O)c(-c2ccncc2)n1`, the IC50 in experiment [17] amounted to 0.059 µM.

Regarding `COC[C@@H]1C[C@H]2[C@@H]3CCc4cc(O)ccc4[C@H]3CC[C@]2(C)C1NN` (stereo partly specified), the IC50 in [14] turned out to be 0.041 µM; in the experiment on SK-OV-3 [18], 4.23 µM; in experiment [19], 4.32 µM. Further, the Activity in the experiment on SK-OV-3 [20] stood at 93.61%.
